In assay [1] the target is T1, neutral endopeptidase (Rattus norvegicus, UniProt P07861).
T1 sequence (P07861 1-750): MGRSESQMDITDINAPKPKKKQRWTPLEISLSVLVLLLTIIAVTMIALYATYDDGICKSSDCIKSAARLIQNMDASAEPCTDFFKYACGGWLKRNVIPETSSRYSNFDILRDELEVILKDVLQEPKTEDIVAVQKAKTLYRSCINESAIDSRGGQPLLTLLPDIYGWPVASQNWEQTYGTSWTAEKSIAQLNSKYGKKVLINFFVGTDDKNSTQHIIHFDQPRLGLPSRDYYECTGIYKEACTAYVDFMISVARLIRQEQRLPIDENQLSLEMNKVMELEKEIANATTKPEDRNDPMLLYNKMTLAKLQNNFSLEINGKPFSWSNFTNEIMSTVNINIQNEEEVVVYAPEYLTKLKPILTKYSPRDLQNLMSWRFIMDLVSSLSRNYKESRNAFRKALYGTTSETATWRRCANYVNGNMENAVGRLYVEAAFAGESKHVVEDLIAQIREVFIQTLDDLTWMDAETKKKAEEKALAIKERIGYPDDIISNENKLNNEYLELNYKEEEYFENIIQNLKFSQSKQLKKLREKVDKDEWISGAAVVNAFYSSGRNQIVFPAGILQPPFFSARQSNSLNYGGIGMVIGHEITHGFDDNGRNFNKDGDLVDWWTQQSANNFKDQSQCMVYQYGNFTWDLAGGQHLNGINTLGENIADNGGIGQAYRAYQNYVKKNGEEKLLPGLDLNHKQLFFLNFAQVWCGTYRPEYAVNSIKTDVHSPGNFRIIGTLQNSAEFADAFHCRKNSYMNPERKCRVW
Put plainly: biochemical. The following applies: enzyme purified from rat kidney; Dns-Gly-Phe-Arg 0.5 mM; pH 7.5; 37°, 30 minutes; inhibitor preincubated 10 minutes. As for the experimental part:
The in vitro neutral endopeptidase activity is determined using a fluorometric assay procedure. The assay is based upon the cleavage of the fluorescent dansylated tripeptide Dns-Gly-Phe-Arg to form Dns-Gly. The latter is extracted from the acidified mixture by ethyl acetate and is strongly fluorescent.
The incubation mixture employed for the assay contains the substance Dns-Gly-Phe-Arg (0.5 mM), tris(hydroxymethyl)aminomethane -HCl buffer (pH 7.5, 50 mM), an enzyme preparation in 0.05% Triton X-100, and water or inhibitor diluted to a final volume of 0.25 ml. The enzyme preparation is purified from rat kidney according to the procedure described by Almenoff et al. in Biochemistry Vol. 22, p. 590-599 (1983). The inhibitor is preincubated for 10 minutes with the enzyme preparation and buffer before the reaction is initiated by the addition of the substrate. Incubation is carried out at 37° for 30 minutes and the reaction is stopped by the addition of 0.25 ml. 1N HCl and extraction of the Dns-Gly product into 1.5 ml. of ethyl acetate. Relative fluorescent intensity (RFI) of the ethyl acetate extract is measured using a Ferrand Spectofluorometer at excitation and emission wavelengths of 342 and 508 nm., respectively, corrected for the RFI of a zero-time control, and compared with assays lacking inhibitor.
Runs are made at different concentrations of test compound and by use of a mathematical model the IC50 is determined. The IC50 is the concentration of test compound that inhibits activity of the enzyme by 50%.

Assay [2] relates to conscious mineralocorticoid hypertensive rats. The assay can be described thus: depressor response in conscious mineralocorticoid hypertensive rats. The assay is classed as in vivo, rat (male Sprague-Dawley). The settings on record: dose 300 μmole/kg., intravenous; DOCA hypertensive rats; MAP recorded for at least 4 hours. As for the experimental part:
The depressor response to test compounds in conscious mineralocorticoid hypertensive rats is determined according to the following procedure.
Male Sprague-Dawley rats (approximately 150 grams) are anesthetized with sodium pentobarbital and indwelling vascular catheters are implanted in the abdominal aorta and vena cava using the methods of Weeks et al., Biological Medicine, Vol. 104, p. 646 (1960).
Before closing the abdominal incision, a pellet containing 100 mg. of deoxycorticosterone acetate (DOCA) is placed in the peritoneal cavity. DOCA is released from the pellet at a constant rate for 21 days.
The rats are housed individually and given saline (0.9% sodium chloride) to drink and fed normal rat chow for the next 3 to 4 weeks. Afterwards, the catheters are opened and mean arterial pressure (MAP) is measured via a Statham pressure transducer and a strip chart recorder. Patency of the arterial catheter is maintained by the infusion of saline from a pressurized reservoir at approximately 10 to 15 μl/min.
Following 2 hours of acclimation, the test compound is injected intravenously. Each dose is delivered as 1.0 ml./kg. +0.03 ml. (an amount sufficient to fill the void volume of the catheter). The MAP is recorded for at least 4 hours.

The test system of assay [3] is conscious spontaneously hypertensive rats (SHR). Put plainly: enhancement of the depressor response to exogenous ANP 99-126 in conscious spontaneously hypertensive rats (SHR). The assay is classed as in vivo, rat (male SHR). The settings on record: intravenous, 30 minutes before 3 nmole/kg. ANP 99-126; dose to increase the area under the blood pressure over time curve to 600 mm Hg. X minute. As for the experimental part:
The capacity of the test compounds to enhance the depressor response to exogenous ANP 99-126 in conscious spontaneously hypertensive rats (SHR) is determined according to the following procedure.
Indwelling vascular catheters are implanted in the abdominal aorta and vena cava of male SHR rats using the methods of Weeks et al. The rat is allowed at least one week recovery time. On the day of the experiment, the aortic catheter is opened and attached to a Statham transducer via a 3-way stream divider. This system allows for a continuous slow infusion of saline (approximately 10 to 15 μl/min.) from a pressurized reservoir to maintain patency of the arterial catheter. Mean arterial pressure (MAP) is continuously monitored on a strip-chart recorder.
Two hours after beginning the blood pressure measurements, the test compound (or the vehicle used to dissolve the compound) is injected intravenously (1.0 ml./kg.) and flushed in with 0.3 ml. of saline. 30 minutes later, a challenge of 3 nmole/kg. of ANP 99-126 is delivered (1.0 ml./kg. +0.3 ml. saline flush). Sufficient time is allowed after the ANP 99-126 injection to observe the maximal depressor response and a 50% recovery.
MAP is determined before ANP 99-126 administration and at 5 minute intervals until the blood pressure recovers by at least 50%. A mathematical model is used to calculate the area under the curve which extends from the time that the MAP falls to 50% of the maximal depressor response to the time of 50% recovery. Results are plotted as the log dose of inhibitor vs. the area under the curve.
The ED600 is the dose required to increase the area under the blood pressure over time curve for exogenous ANP to 600 mm Hg. X minute.

The test system of assay [4] is conscious spontaneously hypertensive rats. The assay can be described thus: renal function (sodium excretion) following intravenous administration of test compounds. Format: in vivo, rat. The protocol:
The renal function following administration of test compounds is determined according to the following procedure.
A catheter is contructed as follows. Pieces of 18 gauge metal tubing (about 1/4 inch in length) are inserted into two lengths of microbore Tygon tubing (0.04 inch inner diameter ×0.07 inch outer diameter). A short segment of Tygon tubing of larger diameter (0.104 inch inner diameter x 0.144 inch outer diameter) is sealed around both metal fittings. This end is to be implanted in the bladder. In order to keep the tip from becoming plugged by particulate matter, 4 holes are punched along its length.
To implant the catheters, male rats are anesthetized with sodium pentobarbital and the urinary bladder is exposed via a midline abdominal incision. A small slit is made in the dome of the urinary bladder and the tip of the catheter is inserted into the lumen. […]
During the course of the experiment, urine is collected in tared containers at specified intervals. Urine volume is determined gravimetrically (1 gram =1 ml.) and the rate of flow is calculated from the total volume/time of collection (ml./min). Sodium concentrations are measured using a Nova-1 Ion Selective Electrode Analyzer. Electrolyte excretion rates (μ Eq./min.) are calculated by multiplying the ion concentration (μ Eq./ml.) by the urine flow (mi./min.). […]

For assay [5], the system named is neutral endopeptidase. The assay can be described thus: inhibition of neutral endopeptidase. The assay is classed as biochemical.
In assay [6] the test system is neutral endopeptidase. The settings on record: in vivo; cited from earlier work.
Assay [7] deals with pig kidney microvillar membranes. The following applies: in vitro; cited from earlier work.
For a further assay, the system named is enkephalinase. The following applies: cited from earlier work.
Another assay concerns man. The following applies: cited from earlier work.

Where a name gives a salt, the structure may show the parent alone. Ends that are not written are not given here.

Broadly, the IC50 is the point on the concentration scale where inhibition reaches its midpoint. Low values mean higher potency, high ones lower potency. In turn, `CC(C)CC(CS)C(=O)N[C@@H](Cc1c[nH]c2ccccc12)C(=O)O` (mixture of isomers) [Example 35, (±)-N-[2-(Mercaptomethyl)-4-methyl-1-oxopentyl]-L-tryptophan] gave an IC50 at neutral endopeptidase [1] of 6.9 nM. The “Change in MAI” value in assay [2] is on record as -56 ± 3 mm. of Hg. Also, the ED600 in assay [3] is 9.2 µmol/kg.
`C[C@H](NC(=O)C(CS)Cc1ccccc1)C(=O)N1CCC[C@H]1C(=O)O` (mixture of isomers) [Example 64, (±)-1-[N-[2-(Mercaptomethyl)-1-oxo-3-phenylpropyl]-L-alanyl]-L-proline] showed an IC50 on neutral endopeptidase [1] of 6 nM. Further, the “Change in MAI” value in assay [2] is on record as -44 ± 5 mm. of Hg.
As to `CC(C)C[C@H](NC(=O)C(CS)Cc1ccccc1)C(=O)O` (single isomer, unassigned; isomer a) [Example 1, N-[2-(Mercaptomethyl)-1-oxo-3-phenylpropyl]-L-leucine (Isomer A)], in assay [2], the “Change in MAI” value is listed as -65 ± 14 mm. of Hg. Besides, the ED600 in assay [3] was determined as 22.8 µmol/kg. Also, in [4] (intravenous 100 mg./kg.), the “increase in sodium excretion” value stood at 2.4 fold.
On to `CC(C)C[C@H](NC(=O)C(CS)Cc1ccccc1)C(=O)O` (single isomer, unassigned; isomer b) [Example 36, N-[2-(Mercaptomethyl)-1-oxo-3-phenylpropyl]-L-leucine (isomer B)], for which the ED600 in assay [3] was 8.22 µmol/kg.
At neutral endopeptidase [1], `C[C@H](CS)C(=O)N[C@@H](Cc1ccccc1)C(=O)O` [Example 39, (S)-N-(3-Mercapto-2-methyl-1-oxopropyl)-L-phenylalanine] showed an IC50 of 15 nM. In assay [2], the “Change in MAI” value is given as -55 ± 4 mm. of Hg.
Regarding `O=C(O)CCCCCCNC(=O)C(CS)Cc1ccccc1` (stereo not drawn) [Example 52, 7-[[2-(Mercaptomethy1)-1-oxo-3-phenylpropyl]amino]-heptanoic acid], the IC50 on neutral endopeptidase [1] is 26 nM. Moreover, the “Change in MAI” value in [2] is on record as -41 ± 8 mm. of Hg. In assay [3], the ED600 stood at 15.5 µmol/kg. In addition, in [4] (intravenous 30 mg./kg. plus 3 mg./kg./min. for 20 minutes, conscious spontaneously hypertensive rats), the “increase in the rate of sodium excretion” value is reported as 2.6 fold.
With `C[C@H](NC(=O)[C@@H](S)Cc1ccccc1)C(=O)N1CCC[C@H]1C(=O)O` [Example 66, (S)-1-[N-(2-Mercapto-1-oxo-3-phenylpropyl)-L-alanyl]-L-proline], the concentration for half-maximal inhibition (IC50) against neutral endopeptidase [1] amounted to 78 nM. The ED600 in assay [3] stood at 2.93 µmol/kg.
Compound `CC(C)C[C@H](NP(=O)(O)O[C@@H]1O[C@@H](C)[C@H](O)[C@@H](O)[C@H]1O)C(=O)N[C@@H](Cc1c[nH]c2ccccc12)C(=O)O` [Example 72, N-(α-L-Rhamnopyranosyloxyhydroxyphosphinyl)-L-leucyl-L-tryptophan] had an IC50 against neutral endopeptidase [1] of 3.8 nM. In the assay with neutral endopeptidase [5], the “inhibition of neutral endopeptidase” value is reported as “inhibits neutral endopeptidase”. Further, in the assay with neutral endopeptidase [6], the excretion of kinins result was “increased excretion of kinins”, the sodium excretion result was “increased sodium excretion”, the urinary kininase activity result was “decreased urinary kininase activity” and the urine volume entry was “increased urine volume”. Also, in [7], the “hydrolysis of α-human atrial natriuretic peptide” value is on record as “suppressed”.
For `CC(C)[C@H](NC(=O)CS)C(=O)N[C@@H](Cc1c[nH]c2ccccc12)C(=O)O` [lithium salt], on neutral endopeptidase [1], the IC50 is 680 nM.
Consider `O=C(O)CNC(=O)C(CS)Cc1ccccc1` (stereo not drawn) [thiorphan, [(D,L)-3-mercapto-2-benzylpropanol]glycine], for which the “inhibitor of enkephalinase in vitro” value with enkephalinase is on record as “nanomolar concentrations”.
Take “human ANF 99-126: putative circulating hormone in man, a 28 amino acid peptide called human ANF 99-126 (SLRRSSCFGGRMDRIGAQSGLGCNSFRY; ends and bridges not checked; cysteine pairing not given here; UniProt P01160 124-151, looked up)”: the “effect of exogenous administration to man” value with man is “diuresis, natriuresis, and a fall in blood pressure”.

The values above are taken from patent US5496805A, “Inhibitors of neutral endopeptidase” (priority 1990, dated 1996).
